Measurements published in paper PMC12384620, “Hit-to-Lead Studies of Pyrazinylpiperazines against Visceral Leishmaniasis: Pharmacokinetic Profile and In Vivo Efficacy of Potent Compounds against Leishmania infantum” (ACS Pharmacology & Translational Science, 2025).
In brackets after ≈: the same amount, converted by molar mass. Where two headings read alike, the source gives them in different places.

What was measured:
THP-1 cells = tested on: THP-1 cells; design: method as in SAR previously reported; conditions: ref SAR previously reported; cited from earlier work
[1] = tested on: L. infantum promastigotes; assay: Antileishmanial activity against promastigotes (MTS); format: cell-based; conditions: Leishmania infantum, 72 h
Description: L. infantum promastigotes (MHOM/MA/67/ITMAP-263) were cultured in complete Schneider medium (SigmaAldrich, St. Louis, MO, USA), which consisted of Schneider medium plus 10% heat-inactivated fetal bovine serum (FBS, SigmaAldrich) pH 7.4, at 24 °C. The L. infantum promastigotes were plated at a concentration of 10^5 parasites/mL, and 2 was added at concentrations of 64, 32, 16, 8, 4, 2, 1, 0.5, 0.25, and 0.125 μM. The cells were cultured for 72 h and, after the incubation time, cell proliferation was measured by colorimetric MTS assay. The cells in each well were stained with 20 μL of MTS (Promega, G3580) for 3 h, and the OD at 490 nm was determined with a microplate reader. All experiments were independently repeated at least three times.

[2] = tested on: L. infantum promastigotes; assay: Reactive oxygen species production assay (H2DCFDA); format: cell-based, Leishmania infantum; conditions: at IC50 against promastigotes, 24 h; standard 100 μM H2O2
Description: The fluorescent dye H2DCFDA was employed to evaluate ROS production. […] After treatment, the parasites were harvested, washed three times with 1 × PBS, and incubated with 10 μM H2DCFDA dye in […] of 1 × PBS in the dark at room temperature for 30 min. Subsequently, the cells were centrifugated, resuspended in ice-cold PBS and kept at 0 °C until reading on a SpectraMax Gemini XPS/EM microplate reader. The median fluorescence intensity (MIF) was measured on a population of at least ten thousand cells and the data was further analyzed using Excel 2021.

[3] = Hepatotoxicity in HepG2 cells (MTS); format: cell-based; conditions: human, read-out: CC50 against HepG2 cells
Description: HepG2 cells were seeded at 2 × 10^4 cells/mL in DMEM, the plates were incubated for 24 h (5% CO2, 37 °C) and the compounds and doxorubicin (used as a positive control) were added in serial dilutions. After 72 h incubation, 15 μL of MTS reagent (CellTiter96) was added to each well, and the plates were incubated for 4 h then read using a microplate absorbance reader at 490 nm. Growth inhibition was expressed as a percentage of the absorbance of the negative control wells.

BALB/c mice = assay: Acute toxicity / maximum tolerated dose in uninfected mice; format: in vivo, mouse; conditions: intraperitoneal, accumulated dose 100 mg/kg, 24 h after last dose
Description: The maximum tolerated dose (MTD) of 2 was determined in BALB/c mice. One male and one female specimen, uninfected, 6 weeks old (ideal weight: 20 g), were each administered intraperitoneally an emulsified sample prepared with 70% PBS1X, 20% PEG 400 (Polyethylene glycol 400, Sigma-Aldrich), 0.16% Tween 80 and 10% of 2, with an initial dose of 5 mg/kg of 2. After 2 h, an additional dose of 15 mg/kg was administered (resulting in an accumulated dose (AD) of 20 mg/kg). After another 2 h, a new dose of 30 mg/kg was administered (AD = 50 mg/kg). After a further 2 h, a final dose of 50 mg/kg (AD = 100 mg/kg) was administered.

Kinetic solubility = format: physicochemical; conditions: PBS, 25 °C, kinetic from dmso stock
Description: The analysis was performed using LC-MS/MS (liquid chromatography-tandem mass spectrometry). The LC-MS/MS system used consisted of a Prominence UFLC (Shimadzu Corporation, Kyoto, Japan) chromatography system, interfaced with a LCMS-8045 triple quadrupole mass spectrometer (Shimadzu Corporation, Kyoto, Japan) equipped with an electrospray ionization source (ESI).
PBS pH 7.4 or 2.0 (final concentration of 250 μM) was added to each well of the plates, and the DMSO concentration was kept lower than 2.5%. The plates were sealed and shaken for 24 h (200 rpm/25 °C). The precipitates on the incubation plate were removed by centrifugation (15 min/3000 rpm/25 °C), and the supernatant fractions were quantified by LC-MS/MS. An intermediate standard solution diluted at 0.5 mM in acetonitrile:water (1:1) was prepared from a 10 mM standard solution. A calibration curve was prepared for each of the test compounds and controls by diluting several times the intermediate standard solution to reach the desired concentrations of 50, 40, 20, 2, and 1 μM. The resulting equation for the calibration curve (y = mx + b) was used to calculate the experimental concentration values for the compounds. The chromatogram for analysis was achieved on a Supelco Ascentis express C18 column (3 cm x 2.1 mm, […]), using water +0.05% formic acid (A) and acetonitrile +0.05% formic acid (B) as mobile phases. […]

L. infantum::tdTomato = format: in vivo, mouse; conditions: for parasitemia reduction in the spleen / parasitemia reduction in the liver: 20 dpi, vs untreated control
Description: BALB/c mice (male, 6 to 8 weeks old, 18 to 20 g) were inoculated intravenously (tail vein) with 2 × 10^7 late-log-phase L. infantum promastigotes from Li::tdTomato lines, and randomly assigned into one of the four treatment groups (six mice per group). After 7 days of infection, […] was administered intraperitoneally in a single dose 500 mg/kg/day meglumine antimoniate (Glucantime, Sanofi Medley), both groups treated with 2 received two daily intraperitoneal injections totaling either 50 mg/kg/day or 100 mg/kg/day of 2, and the control group was administered the vehicle solution. For the intraperitoneal injection, 2 was formulated as follows: a stock solution of 2 in DMSO (100 mg/mL) was prepared daily, and a solution of 70% PBS1X, 20% PEG 400 (Polyethylene Glycol 400, Sigma-Aldrich), 0.16% Tween 80 and 10% of 2 (from the stock solution) was prepared. The control group was also administered this solution, replacing 2 with 10% DMSO. All mice were euthanized 3 days after the end of the treatment, and the liver and spleen of each animal were collected.
The number of viable parasites in each organ was determined using a quantitative limiting dilution assay. Briefly, the organs were macerated using an Ultra-Turrax disperser (IKA-Werke GmbH & Co. KG., Staufen, Germany), and a tissue homogenate was obtained with 1 mL of M199 medium. Each tissue homogenate was sequentially diluted (10-fold) in 96-well flat-bottom microtiter black plates and incubated at 26 °C for 10 days. The wells containing motile promastigotes were identified with an inverted microscope (Axiovert 25, Zeiss), and the parasite burden was determined from the highest dilution at which promastigotes had grown after 10 days of incubation.

In the case of `O=C(c1ccc(O)c(Cl)c1)N1CCN(c2cnccn2)CC1` [Compound 1, (3-Chloro-4-hydroxyphenyl)(4-(pyrazin-2-yl)piperazin-1-yl)methanone], the CC50 (THP-1 cells) is listed as 542 µM.
In the case of `O=C(c1ccc(O)cc1)N1CCN(c2cnccn2)CC1` [Compound 2, (4-Hydroxyphenyl)(4-(pyrazin-2-yl)piperazin-1-yl)methanone], the IC50 [1] is reported as 7.93 µM, the ROS production [2] is reported as “comparable to that of the standard H2O2” and the CC50 at 72 h [3] is reported as over 64 µM. The “signs of acute toxicity (MTD determination)” value (BALB/c mice) was “no apparent signs of acute toxicity”, the solubility kinetic at 24 h (Kinetic solubility; aqueous buffer, pH 2.0) was 125 µM (≈ 35.6 µg/mL) and the solubility kinetic at 24 h (Kinetic solubility; pH 7.4, aqueous buffer) was over 153 µM. The “parasitemia reduction in the spleen” value (L. infantum::tdTomato; 50 mg/kg/day i.p., 10 days) was 80.0%, the “parasitemia reduction in the liver” value (L. infantum::tdTomato; 50 mg/kg/day i.p., 10 days, not significant) was 44.4% and the “parasitemia reduction in the liver” value (L. infantum::tdTomato; 100 mg/kg/day i.p., 10 days) was 90.0%. For the same compound, the “parasitemia reduction in the spleen” value (L. infantum::tdTomato; 100 mg/kg/day i.p., 10 days) was 91.1%, the parasitemia reduction (L. infantum::tdTomato; 100 mg/kg/day, 7-day treatment (as printed in the conclusion)) was “over 90%” and the “death among treated mice” value (L. infantum::tdTomato; 50 and 100 mg/kg/day i.p., 10 days) was “No death”. For the same compound, the “external signs of acute toxicity during and after treatment” value (L. infantum::tdTomato; 50 and 100 mg/kg/day i.p., 10 days, infected BALB/c mice) was “No external signs of acute toxicity”.
